{"source": "paper PMC7647112", "about": "“The SiaABC threonine phosphorylation pathway controls biofilm formation in response to carbon availability in Pseudomonas aeruginosa” (PLoS ONE, 2020)", "key": {"SiaA-PP2C [1]": {"target": "T1, SiaA-PP2C (Pseudomonas aeruginosa, UniProt Q9I6W0)", "T1 construct": "gene PA0172; C-terminal PP2C phosphatase domain, residues 386-663, His-tagged (pNIC vectors), E. coli BL21(DE3) Rosetta; ~33 kDa monomer, homodimer (66 kDa by SEC)", "assay": "pNPP phosphatase assay, absorbance […] nm", "assay_type": "biochemical", "settings": "read-out: % activity remaining at 0.1 mM fumonisin B1"}, "[2]": {"target": "SiaC (Pseudomonas aeruginosa)", "assay": "SEC; SiaB and SiaC mixed in equal molar ratio, incubated at room temperature for 1 h, without ATP and MgCl2; Hiload 16/600 Superdex 200; peaks analysed by SDS-PAGE"}, "SiaA-PP2C [3]": {"target": "T1, SiaA-PP2C", "assay": "pNPP phosphatase assay, absorbance […] nm", "assay_type": "biochemical", "settings": "20 mM MgCl2, 20 mM Tris-HCl pH 7.5, 150 mM NaCl, 37°C; 0.5-5 mM pNPP"}, "[4]": {"target": "C-terminal part of SiaA including the PP2C-like phosphatase domain (SiaA-PP2C, amino acids 386-663) (Pseudomonas aeruginosa)", "assay": "SEC; size-exclusion chromatography of SiaA-PP2C alone; elution compared with markers"}}}
{"compound": "CCCC[C@@H](C)[C@@H](OC(=O)C[C@@H](CC(=O)O)C(=O)O)[C@H](C[C@@H](C)C[C@H](O)CCCC[C@@H](O)C[C@H](O)[C@H](C)N)OC(=O)C[C@@H](CC(=O)O)C(=O)O", "note": "[fumonisin B1]", "values": [{"measurement": "remaining activity at 100 µM", "setting": "SiaA-PP2C [1]", "result": 35.5, "unit": "%"}]}
{"compound": "SiaB (enzyme)", "values": [{"measurement": "stoichiometry N (SiaB:SiaC (2:2 complex))", "setting": "[2]", "result": 1}]}
{"compound": "O=[N+]([O-])c1ccc(OP(=O)(O)O)cc1", "note": "[para-nitrophenyl phosphate]", "values": [{"measurement": "pNPP phosphatase assay, absorbance 405 nm", "setting": "SiaA-PP2C [3]", "result": "phosphatase activity of SiaA-PP2C was assessed using para-nitrophenyl phosphate (pNPP)"}]}
{"compound": "C-terminal part of SiaA including the PP2C-like phosphatase domain (SiaA-PP2C, amino acids 386-663) (domain or fragment)", "values": [{"measurement": "stoichiometry N", "setting": "[4]", "result": 2}]}
